Experimental data: PubChem BioAssay (NCI)
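Abbreviation: GI50, concentration required for 50% inhibition of growth. TGI: total growth inhibition.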

Experiments:
Test in all cases: DTP human tumour cell line panel, 384-well format
SNB-75 CNS = system: SNB-75 CNS
HOP-92 NSCLC = system: HOP-92 NSCLC
HS 578T breast = system: HS 578T breast
MALME-3M melanoma = system: MALME-3M melanoma
RXF 393 renal = system: RXF 393 renal
OVCAR-3 ovarian = system: OVCAR-3 ovarian
RPMI-8226 leukemia = system: RPMI-8226 leukemia
NCI-H522 lung = system: NCI-H522 lung
SF-295 CNS = system: SF-295 CNS
SR leukemia = system: SR leukemia
OVCAR-4 ovarian = system: OVCAR-4 ovarian
LOX IMVI melanoma = system: LOX IMVI melanoma
SK-MEL-28 melanoma = system: SK-MEL-28 melanoma
IGROV1 ovarian = system: IGROV1 ovarian
SF-539 CNS = system: SF-539 CNS
UACC-257 melanoma = system: UACC-257 melanoma
A498 renal = system: A498 renal
NCI-H23 lung = system: NCI-H23 lung
TK-10 renal = system: TK-10 renal
NCI-H226 lung = system: NCI-H226 lung
HCC-2998 colon = system: HCC-2998 colon
UACC-62 melanoma = system: UACC-62 melanoma
SN12C renal = system: SN12C renal
MDA-MB-435 melanoma = system: MDA-MB-435 melanoma
NCI-H322M lung = system: NCI-H322M lung
PC-3 prostate = system: PC-3 prostate
HL-60(TB) leukemia = system: HL-60(TB) leukemia
NCI/ADR-RES ovarian = system: NCI/ADR-RES ovarian
UO-31 renal = system: UO-31 renal
COLO 205 colon = system: COLO 205 colon
A549 NSCLC = system: A549 NSCLC
U251 glioblastoma = system: U251 glioblastoma
SK-OV-3 ovarian = system: SK-OV-3 ovarian
SK-MEL-2 melanoma = system: SK-MEL-2 melanoma
SF-268 CNS = system: SF-268 CNS
SW-620 colon = system: SW-620 colon
M14 melanoma = system: M14 melanoma
CAKI-1 renal = system: CAKI-1 renal
HCT-15 colon = system: HCT-15 colon
NCI-H460 NSCLC = system: NCI-H460 NSCLC
OVCAR-8 ovarian = system: OVCAR-8 ovarian
ACHN renal = system: ACHN renal
EKVX NSCLC = system: EKVX NSCLC
MOLT-4 leukemia = system: MOLT-4 leukemia
K-562 leukemia = system: K-562 leukemia
MDA-MB-468 breast = system: MDA-MB-468 breast
MCF7 breast = system: MCF7 breast

O=C(Nc1cnn2ccc(N3CCC[C@@H]3c3cc(F)ccc3F)nc12)N1CC[C@H](O)C1
GI50 (SNB-75 CNS): > 100 µM | TGI (SNB-75 CNS): > 100 µM | GI50 (HOP-92 NSCLC): > 100 µM | TGI (HOP-92 NSCLC): > 100 µM | GI50 (HS 578T breast): > 100 µM | TGI (HS 578T breast): > 100 µM | GI50 (MALME-3M melanoma): > 100 µM | TGI (MALME-3M melanoma): > 100 µM | GI50 (RXF 393 renal): > 100 µM | TGI (RXF 393 renal): > 100 µM | GI50 (OVCAR-3 ovarian): > 100 µM | TGI (OVCAR-3 ovarian): > 100 µM | GI50 (RPMI-8226 leukemia): > 100 µM | TGI (RPMI-8226 leukemia): > 100 µM | GI50 (NCI-H522 lung): > 100 µM | TGI (NCI-H522 lung): > 100 µM | GI50 (SF-295 CNS): > 100 µM | TGI (SF-295 CNS): > 100 µM | GI50 (SR leukemia): > 78.9 µM | TGI (SR leukemia): > 100 µM | GI50 (OVCAR-4 ovarian): > 100 µM | TGI (OVCAR-4 ovarian): > 100 µM | GI50 (LOX IMVI melanoma): > 100 µM | TGI (LOX IMVI melanoma): > 100 µM | GI50 (SK-MEL-28 melanoma): > 100 µM | TGI (SK-MEL-28 melanoma): > 100 µM | GI50 (IGROV1 ovarian): > 100 µM | TGI (IGROV1 ovarian): > 100 µM | GI50 (SF-539 CNS): > 100 µM | TGI (SF-539 CNS): > 100 µM | GI50 (UACC-257 melanoma): > 100 µM | TGI (UACC-257 melanoma): > 100 µM | GI50 (A498 renal): > 100 µM | TGI (A498 renal): > 100 µM | GI50 (NCI-H23 lung): > 100 µM | TGI (NCI-H23 lung): > 100 µM | GI50 (TK-10 renal): > 100 µM | TGI (TK-10 renal): > 100 µM | GI50 (NCI-H226 lung): > 100 µM | TGI (NCI-H226 lung): > 100 µM | GI50 (HCC-2998 colon): > 100 µM | TGI (HCC-2998 colon): > 100 µM | GI50 (UACC-62 melanoma): > 100 µM | TGI (UACC-62 melanoma): > 100 µM | GI50 (SN12C renal): > 100 µM | TGI (SN12C renal): > 100 µM | GI50 (MDA-MB-435 melanoma): > 100 µM | TGI (MDA-MB-435 melanoma): > 100 µM | GI50 (NCI-H322M lung): > 100 µM | TGI (NCI-H322M lung): > 100 µM | GI50 (PC-3 prostate): > 100 µM | TGI (PC-3 prostate): > 100 µM | GI50 (HL-60(TB) leukemia): > 100 µM | TGI (HL-60(TB) leukemia): > 100 µM | GI50 (NCI/ADR-RES ovarian): > 100 µM | TGI (NCI/ADR-RES ovarian): > 100 µM | GI50 (UO-31 renal): > 100 µM | TGI (UO-31 renal): > 100 µM | GI50 (COLO 205 colon): > 100 µM | TGI (COLO 205 colon): > 100 µM | GI50 (A549 NSCLC): > 100 µM | TGI (A549 NSCLC): > 100 µM | GI50 (U251 glioblastoma): > 100 µM | TGI (U251 glioblastoma): > 100 µM | GI50 (SK-OV-3 ovarian): > 100 µM | TGI (SK-OV-3 ovarian): > 100 µM | GI50 (SK-MEL-2 melanoma): > 100 µM | TGI (SK-MEL-2 melanoma): > 100 µM | GI50 (SF-268 CNS): > 100 µM | TGI (SF-268 CNS): > 100 µM | GI50 (SW-620 colon): > 100 µM | TGI (SW-620 colon): > 100 µM | GI50 (M14 melanoma): > 100 µM | TGI (M14 melanoma): > 100 µM | GI50 (CAKI-1 renal): > 100 µM | TGI (CAKI-1 renal): > 100 µM | GI50 (HCT-15 colon): > 100 µM | TGI (HCT-15 colon): > 100 µM | GI50 (NCI-H460 NSCLC): > 100 µM | TGI (NCI-H460 NSCLC): > 100 µM | GI50 (OVCAR-8 ovarian): > 100 µM | TGI (OVCAR-8 ovarian): > 100 µM | GI50 (ACHN renal): > 100 µM | TGI (ACHN renal): > 100 µM | GI50 (EKVX NSCLC): > 100 µM | TGI (EKVX NSCLC): > 100 µM | GI50 (MOLT-4 leukemia): 77.1 µM | TGI (MOLT-4 leukemia): > 100 µM | GI50 (K-562 leukemia): > 100 µM | TGI (K-562 leukemia): > 100 µM | GI50 (MDA-MB-468 breast): > 100 µM | TGI (MDA-MB-468 breast): > 100 µM | GI50 (MCF7 breast): > 100 µM | TGI (MCF7 breast): > 100 µM

COc1ncc(-c2nc3c(n2C(C)C)[C@H](c2ccc(Cl)cc2)N(c2cc(Cl)cn(C)c2=O)C3=O)c(OC)n1
GI50 (SNB-75 CNS): > 52.2 µM | TGI (SNB-75 CNS): > 100 µM | GI50 (HOP-92 NSCLC): 24.8 µM | TGI (HOP-92 NSCLC): > 92.2 µM | GI50 (HS 578T breast): 33.3 µM | TGI (HS 578T breast): > 100 µM | GI50 (MALME-3M melanoma): 12.7 µM | TGI (MALME-3M melanoma): 42.5 µM | GI50 (RXF 393 renal): 35.5 µM | TGI (RXF 393 renal): > 89.3 µM | GI50 (OVCAR-3 ovarian): 33.3 µM | TGI (OVCAR-3 ovarian): 90 µM | GI50 (RPMI-8226 leukemia): 20.7 µM | TGI (RPMI-8226 leukemia): 42.7 µM | GI50 (NCI-H522 lung): 48.4 µM | TGI (NCI-H522 lung): > 100 µM | GI50 (SF-295 CNS): 63.6 µM | TGI (SF-295 CNS): > 100 µM | GI50 (SR leukemia): 1.96 µM | TGI (SR leukemia): 10.9 µM | GI50 (OVCAR-4 ovarian): 28.9 µM | TGI (OVCAR-4 ovarian): > 100 µM | GI50 (LOX IMVI melanoma): 18.9 µM | TGI (LOX IMVI melanoma): > 100 µM | GI50 (SK-MEL-28 melanoma): > 62.3 µM | TGI (SK-MEL-28 melanoma): > 100 µM | GI50 (IGROV1 ovarian): 24.9 µM | TGI (IGROV1 ovarian): > 100 µM | GI50 (SF-539 CNS): > 73 µM | TGI (SF-539 CNS): > 100 µM | GI50 (UACC-257 melanoma): 17.5 µM | TGI (UACC-257 melanoma): 37.3 µM | GI50 (A498 renal): 9.44 µM | TGI (A498 renal): 52.9 µM | GI50 (NCI-H23 lung): 60.6 µM | TGI (NCI-H23 lung): > 100 µM | GI50 (TK-10 renal): > 68.4 µM | TGI (TK-10 renal): > 100 µM | GI50 (NCI-H226 lung): 13 µM | TGI (NCI-H226 lung): 30.2 µM | GI50 (HCC-2998 colon): 65.7 µM | TGI (HCC-2998 colon): > 100 µM | GI50 (UACC-62 melanoma): 5.25 µM | TGI (UACC-62 melanoma): 22.7 µM | GI50 (SN12C renal): > 93.2 µM | TGI (SN12C renal): > 100 µM | GI50 (MDA-MB-435 melanoma): 60.3 µM | TGI (MDA-MB-435 melanoma): > 100 µM | GI50 (NCI-H322M lung): > 96 µM | TGI (NCI-H322M lung): > 100 µM | GI50 (PC-3 prostate): 39.7 µM | TGI (PC-3 prostate): > 100 µM | GI50 (HL-60(TB) leukemia): 16.7 µM | TGI (HL-60(TB) leukemia): 31.1 µM | GI50 (NCI/ADR-RES ovarian): 62.6 µM | TGI (NCI/ADR-RES ovarian): > 100 µM | GI50 (UO-31 renal): 12.4 µM | TGI (UO-31 renal): 28.2 µM | GI50 (COLO 205 colon): 62.6 µM | TGI (COLO 205 colon): > 100 µM | GI50 (A549 NSCLC): 16.6 µM | TGI (A549 NSCLC): 58.7 µM | GI50 (U251 glioblastoma): 65.4 µM | TGI (U251 glioblastoma): > 100 µM | GI50 (SK-OV-3 ovarian): > 76 µM | TGI (SK-OV-3 ovarian): > 100 µM | GI50 (SK-MEL-2 melanoma): > 100 µM | TGI (SK-MEL-2 melanoma): > 100 µM | GI50 (SF-268 CNS): > 50.5 µM | TGI (SF-268 CNS): > 77.9 µM | GI50 (SW-620 colon): 53.5 µM | TGI (SW-620 colon): 97.8 µM | GI50 (M14 melanoma): 48.5 µM | TGI (M14 melanoma): > 100 µM | GI50 (CAKI-1 renal): 6.27 µM | TGI (CAKI-1 renal): > 64.1 µM | GI50 (HCT-15 colon): 36 µM | TGI (HCT-15 colon): > 100 µM | GI50 (NCI-H460 NSCLC): 14.2 µM | TGI (NCI-H460 NSCLC): 45.5 µM | GI50 (OVCAR-8 ovarian): 66.1 µM | TGI (OVCAR-8 ovarian): > 100 µM | GI50 (ACHN renal): 13.1 µM | TGI (ACHN renal): 47.8 µM | GI50 (EKVX NSCLC): 58.7 µM | TGI (EKVX NSCLC): > 100 µM | GI50 (MOLT-4 leukemia): 2.06 µM | TGI (MOLT-4 leukemia): 5.15 µM | GI50 (K-562 leukemia): 33.2 µM | TGI (K-562 leukemia): > 100 µM | GI50 (MDA-MB-468 breast): 17.3 µM | TGI (MDA-MB-468 breast): 39.6 µM | GI50 (MCF7 breast): 24.7 µM | TGI (MCF7 breast): > 100 µM
